Test results as given in the supplement of paper PMC8967900.

What follows are compounds tested on PF-382 (assay: selective drug sensitivity score (sDSS, relative to normal bone marrow) (sDSS (score)); higher = more potent and effective on the cell line relative to normal bone marrow cells). Conditions: 72 h.
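Also: ALL cell lines in 384-well plates, five doses spanning 10,000-fold, each plate scaled between vehicle and 100 µmol/L benzalkonium chloride controls, sDSS an adapted area-under-curve metric.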

Structure (SMILES)	selective drug sensitivity score
NCCNc1ccc(NCCN)c2c1C(=O)c1ccncc1C2=O [Pixantrone] (top concentration 10000 nM)	-1.86
c1cc(CN2CCCNCCNCCCNCC2)ccc1CN1CCCNCCNCCCNCC1 [Plerixafor] (top concentration 10000 nM)	0
O=C(c1ccc(OCCN2CCCCC2)cc1)c1c(-c2ccc(O)cc2)sc2cc(O)ccc12 [Raloxifene] (top concentration 10000 nM)	-0.58
CN(C)C(=O)c1cc2cnc(Nc3ccc(N4CCNCC4)cn3)nc2n1C1CCCC1 [Ribociclib] (top concentration 10000 nM)	2.88
CN1CCN(CCOc2cc(OC3CCOCC3)c3c(Nc4c(Cl)ccc5c4OCO5)ncnc3c2)CC1 [Saracatinib] (top concentration 10000 nM)	8.18
C=CC(=O)Nc1cccc(Nc2nc(Nc3ccc(OCCOC)cc3)ncc2F)c1 [Spebrutinib] (top concentration 1000 nM)	-0.16
C[C@@H]1CN(Cc2ccc(F)cc2)[C@@H](C)CN1C(=O)c1cc2c(C(=O)C(=O)N(C)C)cn(C)c2cc1Cl [Talmapimod] (top concentration 10000 nM)	0
C[C@@H](C(=O)O)c1ccc(-c2ccccc2)c(F)c1 [Tarenflurbil] (top concentration 10000 nM)	-0.16
CNC(=O)c1cc(COc2nnc(Nc3ccc(Cl)cc3)c3ccoc23)ccn1 [Telatinib] (top concentration 10000 nM)	0
O=c1sn(-c2cccc3ccccc23)c(=O)n1Cc1ccccc1 [Tideglusib] (top concentration 3000 nM)	-0.3
COc1cc2nccc(Oc3ccc(NC(=O)Nc4cc(C)on4)c(Cl)c3)c2cc1OC [Tivozanib] (top concentration 10000 nM)	1.36
Cc1cc(Nc2cc(N3CCN(C)CC3)nc(Sc3ccc(NC(=O)C4CC4)cc3)n2)n[nH]1 [Tozasertib] (top concentration 10000 nM)	7.06
CC1=C(/C=C/C(C)=C/C=C/C(C)=C/C(=O)O)C(C)(C)CCC1 [Tretinoin] (top concentration 10000 nM)	-2.4
COC(=O)c1ccc2c(c1)[nH]c1ncnc(NCCCN3CCCCC3)c12 [UM729] (top concentration 10000 nM)	1.24
COc1cc2c(NC3CCN(C(C)C)CC3)nc(N3CCC(F)(F)CC3)nc2cc1OCCCN1CCCC1 [UNC0642] (top concentration 10000 nM)	-2.14
O=C(c1ccc(C(=O)N2CCC(N3CCCC3)CC2)c(Nc2ccccc2)c1)N1CCC(N2CCCC2)CC1 [UNC1215] (top concentration 10000 nM)	0
CCCC(CCC)C(=O)O [Valproic_acid] (top concentration 1000000 nM)	0
Clc1ccc(Nc2nnc(Cc3ccncc3)c3ccccc23)cc1 [Vatalanib] (top concentration 10000 nM)	0
CCCS(=O)(=O)Nc1ccc(F)c(C(=O)c2c[nH]c3ncc(-c4ccc(Cl)cc4)cc23)c1F [Vemurafenib] (top concentration 10000 nM)	3.56

What follows are compounds tested on RCH-ACV in the same assay as above. Conditions: 72 h.

Structure (SMILES)	selective drug sensitivity score
NCCNc1ccc(NCCN)c2c1C(=O)c1ccncc1C2=O [Pixantrone] (top concentration 10000 nM)	-2.76
c1cc(CN2CCCNCCNCCCNCC2)ccc1CN1CCCNCCNCCCNCC1 [Plerixafor] (top concentration 10000 nM)	0
O=C(c1ccc(OCCN2CCCCC2)cc1)c1c(-c2ccc(O)cc2)sc2cc(O)ccc12 [Raloxifene] (top concentration 10000 nM)	0.02
CN(C)C(=O)c1cc2cnc(Nc3ccc(N4CCNCC4)cn3)nc2n1C1CCCC1 [Ribociclib] (top concentration 10000 nM)	8.08
CN1CCN(CCOc2cc(OC3CCOCC3)c3c(Nc4c(Cl)ccc5c4OCO5)ncnc3c2)CC1 [Saracatinib] (top concentration 10000 nM)	7.28
C=CC(=O)Nc1cccc(Nc2nc(Nc3ccc(OCCOC)cc3)ncc2F)c1 [Spebrutinib] (top concentration 1000 nM)	4.14
C[C@@H]1CN(Cc2ccc(F)cc2)[C@@H](C)CN1C(=O)c1cc2c(C(=O)C(=O)N(C)C)cn(C)c2cc1Cl [Talmapimod] (top concentration 10000 nM)	4.9
C[C@@H](C(=O)O)c1ccc(-c2ccccc2)c(F)c1 [Tarenflurbil] (top concentration 10000 nM)	-0.16
CNC(=O)c1cc(COc2nnc(Nc3ccc(Cl)cc3)c3ccoc23)ccn1 [Telatinib] (top concentration 10000 nM)	0.2
O=c1sn(-c2cccc3ccccc23)c(=O)n1Cc1ccccc1 [Tideglusib] (top concentration 3000 nM)	-0.3
COc1cc2nccc(Oc3ccc(NC(=O)Nc4cc(C)on4)c(Cl)c3)c2cc1OC [Tivozanib] (top concentration 10000 nM)	10.9
Cc1cc(Nc2cc(N3CCN(C)CC3)nc(Sc3ccc(NC(=O)C4CC4)cc3)n2)n[nH]1 [Tozasertib] (top concentration 10000 nM)	17.9
CC1=C(/C=C/C(C)=C/C=C/C(C)=C/C(=O)O)C(C)(C)CCC1 [Tretinoin] (top concentration 10000 nM)	-2.4
COC(=O)c1ccc2c(c1)[nH]c1ncnc(NCCCN3CCCCC3)c12 [UM729] (top concentration 10000 nM)	3.24
COc1cc2c(NC3CCN(C(C)C)CC3)nc(N3CCC(F)(F)CC3)nc2cc1OCCCN1CCCC1 [UNC0642] (top concentration 10000 nM)	2.56
O=C(c1ccc(C(=O)N2CCC(N3CCCC3)CC2)c(Nc2ccccc2)c1)N1CCC(N2CCCC2)CC1 [UNC1215] (top concentration 10000 nM)	0
CCCC(CCC)C(=O)O [Valproic_acid] (top concentration 1000000 nM)	0
Clc1ccc(Nc2nnc(Cc3ccncc3)c3ccccc23)cc1 [Vatalanib] (top concentration 10000 nM)	0
CCCS(=O)(=O)Nc1ccc(F)c(C(=O)c2c[nH]c3ncc(-c4ccc(Cl)cc4)cc23)c1F [Vemurafenib] (top concentration 10000 nM)	3.36

Each compound was assayed on REH in the same assay as above. Conditions: 72 h.

Structure (SMILES)	selective drug sensitivity score
NCCNc1ccc(NCCN)c2c1C(=O)c1ccncc1C2=O [Pixantrone] (top concentration 10000 nM)	0.24
c1cc(CN2CCCNCCNCCCNCC2)ccc1CN1CCCNCCNCCCNCC1 [Plerixafor] (top concentration 10000 nM)	0.1
O=C(c1ccc(OCCN2CCCCC2)cc1)c1c(-c2ccc(O)cc2)sc2cc(O)ccc12 [Raloxifene] (top concentration 10000 nM)	4.62
CN(C)C(=O)c1cc2cnc(Nc3ccc(N4CCNCC4)cn3)nc2n1C1CCCC1 [Ribociclib] (top concentration 10000 nM)	-0.42
CN1CCN(CCOc2cc(OC3CCOCC3)c3c(Nc4c(Cl)ccc5c4OCO5)ncnc3c2)CC1 [Saracatinib] (top concentration 10000 nM)	-2.02
C=CC(=O)Nc1cccc(Nc2nc(Nc3ccc(OCCOC)cc3)ncc2F)c1 [Spebrutinib] (top concentration 1000 nM)	-0.16
C[C@@H]1CN(Cc2ccc(F)cc2)[C@@H](C)CN1C(=O)c1cc2c(C(=O)C(=O)N(C)C)cn(C)c2cc1Cl [Talmapimod] (top concentration 10000 nM)	2.8
C[C@@H](C(=O)O)c1ccc(-c2ccccc2)c(F)c1 [Tarenflurbil] (top concentration 10000 nM)	-0.06
CNC(=O)c1cc(COc2nnc(Nc3ccc(Cl)cc3)c3ccoc23)ccn1 [Telatinib] (top concentration 10000 nM)	2.6
